Strand notation (5' to 3'): a small letter for the sugar, then the base; units joined by * are phosphorothioate-linked, units joined directly phosphodiester-linked; [ ] holds rarer units or linkages, { } end groups; capitals alone tell only the bases. e = 2'-O-(2-methoxyethyl) (MOE); [5mC] = 5-methylcytosine; d = 2'-deoxy (DNA)

The record followed here is patent US11840686B2, “Modulation of prekallikrein (PKK) expression” (Ionis Pharmaceuticals, Inc., priority 2013, dated 2023).

The subject of data set [1] is basal vascular permeability. The experiment in a line: Dose-dependent effect on basal vascular permeability, Evans Blue OD600 (Example 14). Type of data set: in vivo, mouse. The following applies: for OD600 nm of Evans Blue dye, Colon / OD600 nm of Evans Blue dye, Ears / OD600 nm of Evans Blue dye, Feet: basal. The procedure: The effect of varying doses on ISIS 482584 on basal vascular permeability was evaluated.
Group 1 consisted of 8 mice and was treated with PBS administered subcutaneously twice a week for 3 weeks. No other treatment was administered to Group 1 which served as a control group to measure the basal levels of vascular permeability.
Group 2 consisted of 4 mice and was treated with PBS administered subcutaneously twice a week for 3 weeks. At the end of the treatment period, the mice were intraperitoneally administered 30 μg of HOE-140. Group 2 served as a positive control for inhibition of basal vascular permeability.
Groups 3, 4, 5, 6, 7, and 8 consisted of 8 mice each and were treated with 2.5 mg/kg, 5 mg/kg, 10 mg/kg, 20 mg/kg, 40 mg/kg, or 80 mg/kg (corresponding to 5 mg/kg, 10 mg/kg, 20 mg/kg, 40 mg/kg, 80 mg/kg, or 160 mg/kg per week), respectively of ISIS 482584 administered subcutaneously twice a week for 3 weeks. […] served as the experimental treatment groups for examining the effect of varying doses of ISIS 482584 on basal vascular permeability.
All the groups were then injected with 30 mg/kg of Evans Blue solution in the tail vein. The mice were sacrificed 30 min after the Evans Blue solution administration and colons, feet, and ears were harvested and examined for permeability defects. Blood samples were taken through cardiac puncture.
The harvested tissues from the feet, colon, and ears were placed in formamide solution overnight to leach out the Evans Blue dye. The formamide solution containing feet and ear tissue was heated to 55° C. and left overnight. Higher OD values are associated with higher levels of permeability.

Data set [2] deals with captopril-induced vascular permeability. The experiment in a line: Dose-dependent effect on captopril-induced vascular permeability, Evans Blue OD600 (Example 13). As to conditions: for OD600 nm of Evans Blue dye, Colon / OD600 nm of Evans Blue dye, Ears / OD600 nm of Evans Blue dye, Feet / OD600 nm of Evans Blue dye, Intestine: captopril Yes. The format is in vivo, mouse. As to the method: The effect of varying doses on ISIS 482584 on captopril-induced vascular permeability was evaluated.
Group 1 consisted of 4 mice and was treated with PBS administered subcutaneously twice a week for 3 weeks. No other treatment was administered to Group 1 which served as a control group to measure the basal levels of vascular permeability.
Group 2 consisted of 8 mice and was treated with PBS administered subcutaneously twice a week for 3 weeks. At the end of the treatment period, the mice were intraperitoneally administered 20 μg of captopril. Group 2 served as the control group for captopril-induced vascular permeability.
Group 3 consisted of 4 mice and was treated with PBS administered subcutaneously twice a week for 3 weeks. At the end of the treatment period, the mice were intraperitoneally administered 20 μg of captopril. The mice were also intraperitoneally administered 30 μg of Icatibant (HOE-140). […] served as a positive control for inhibition of captopril-induced vascular permeability.
Groups 4, 5, 6, 7, 8, and 9 consisted of 8 mice each and were treated with 2.5 mg/kg, 5 mg/kg, 10 mg/kg, 20 mg/kg, 40 mg/kg, or 80 mg/kg (corresponding to 5 mg/kg, 10 mg/kg, 20 mg/kg, 40 mg/kg, 80 mg/kg, or 160 mg/kg per week), respectively of ISIS 482584 administered subcutaneously twice a week for 3 weeks. At the end of the treatment period, the mice of all the groups were intraperitoneally administered 20 μg of captopril. Groups 4-9 served as the experimental treatment groups for examining the effect of varying doses of ISIS 482584 on captopril-induced vascular permeability.
All the groups were then injected with 30 mg/kg of Evans Blue solution in the tail vein. The mice were sacrificed 30 min after the Evans Blue solution administration and colons, feet, ears, and intestines were harvested. Blood samples were taken through cardiac puncture.
The harvested tissues were placed in formamide solution overnight to leach out the Evans Blue dye. The formamide solution containing feet and ear tissue was heated to 55° C. and left overnight.

For another data set, the system named is human PKK mRNA. The experiment in a line: Antisense inhibition of human PKK mRNA in HepaRG cells, 1,000 nM, MOE/deoxy/cEt oligonucleotides (Example 3). The format is cell-based. Summed up:
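Readout is percent PKK mRNA reduction against untreated controls, by real-time PCR (RTS3454) adjusted for total RNA via RIBOGREEN. Oligonucleotides, phosphorothioate gapmers of 16 nucleosides with cEt, MOE and deoxy sugars, were delivered at 1,000 nM by electroporation to 20,000 HepaRG cells/well for roughly 24 h.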

Where [3] appears, read: dose 5 mg/kg, sc twice a week 3 weeks.
Setting [4] is: dose 10 mg/kg, sc twice a week 3 weeks.
[5] abbreviates: dose 20 mg/kg, sc twice a week 3 weeks.
Setting [6] is: dose 40 mg/kg, sc twice a week 3 weeks.
[7] abbreviates: dose 80 mg/kg, sc twice a week 3 weeks.
[8] abbreviates: dose 160 mg/kg, sc twice a week 3 weeks.

Turning to “ISIS 482584: 5-10-5 MOE gapmer targeting murine PKK, GGCATATTGGTTTTTGGAAT; SEQ ID NO: 2244 (antisense eG*eG*e[5mC]*eA*eT*dA*dT*dT*dG*dG*dT*dT*dT*dT*dT*eG*eG*eA*eA*eT)”, the “basal vascular permeability” value in data set [1] (all doses (Groups 3-8), most of the tissues, vs PBS control) was “reduced basal vascular permeability”. Also, the “OD600 nm of Evans Blue dye, Colon” value was 0.32 in data set [1] (5 mg/kg/week sc, 3 weeks); 0.31 in data set [1] (10 mg/kg/week sc, 3 weeks); 0.26 in data set [1] (20 mg/kg/week sc, 3 weeks); 0.27 in data set [1] (40 mg/kg/week sc, 3 weeks); 0.24 in data set [1] (80 mg/kg/week sc, 3 weeks); 0.25 in data set [1] (160 mg/kg/week sc, 3 weeks). Besides, the “OD600 nm of Evans Blue dye, Colon” value worked out at 0.41 in data set [2] (setting [3]); 0.41 in data set [2] (setting [4]); 0.40 in data set [2] (setting [5]); 0.36 in data set [2] (setting [6]); 0.21 in data set [2] (setting [7]); 0.26 in data set [2] (setting [8]). Also, the “OD600 nm of Evans Blue dye, Ears” value in data set [1] (5 mg/kg/week sc, 3 weeks) was found to be 0.009; in data set [1] (10 mg/kg/week sc, 3 weeks) it was 0.015; in data set [1] (20 mg/kg/week sc, 3 weeks), 0.009; in data set [1] (40 mg/kg/week sc, 3 weeks), 0.011; in data set [1] (80 mg/kg/week sc, 3 weeks), 0.014; in data set [1] (160 mg/kg/week sc, 3 weeks), 0.019. Moreover, the “OD600 nm of Evans Blue dye, Ears” value in data set [2] (setting [3]) was determined as 0.05; in data set [2] (setting [4]) it was 0.05; in data set [2] (setting [5]), 0.07; in data set [2] (setting [6]), 0.05; in data set [2] (setting [7]), 0.03; in data set [2] (setting [8]), 0.05. The “OD600 nm of Evans Blue dye, Feet” value in data set [1] (5 mg/kg/week sc, 3 weeks) is 0.11; in data set [1] (10 mg/kg/week sc, 3 weeks), 0.10; in data set [1] (20 mg/kg/week sc, 3 weeks) it was 0.11; in data set [1] (40 mg/kg/week sc, 3 weeks), 0.11; in data set [1] (80 mg/kg/week sc, 3 weeks) it was 0.09; in data set [1] (160 mg/kg/week sc, 3 weeks), 0.11. Besides, the “OD600 nm of Evans Blue dye, Feet” value in data set [2] (setting [3]) came to 0.10; in data set [2] (setting [4]) it was 0.10; in data set [2] (setting [5]) it was 0.11; in data set [2] (setting [6]), 0.10; in data set [2] (setting [7]), 0.04; in data set [2] (setting [8]), 0.10. Moreover, the “OD600 nm of Evans Blue dye, Intestine” value came out at 0.17 in data set [2] (setting [3]); 0.19 in data set [2] (setting [4]); 0.20 in data set [2] (setting [5]); 0.20 in data set [2] (setting [6]); 0.17 in data set [2] (setting [7]); 0.15 in data set [2] (setting [8]). The “captopril-induced vascular permeability” value in data set [2] (higher doses (Groups 4, 5, and 6) vs PBS control group (Group 2)) is listed as “reduced levels of captopril-induced vascular permeability”.
What is called % inhibition is the drop in the measured response relative to a control, in per cent. As to “531231 (eT*eA*eT*e[5mC]*eA*d[5mC]*dT*dG*dT*dA*d[5mC]*dT*dA*dG*dT*eT*eT*e[5mC]*e[5mC]*eT) [compound 531231]”, the “% inhibition” value amounted to 46% with human PKK mRNA (HepaRG cells, 1,000 nM antisense oligonucleotide, Table 29); 19% in the data set on human PKK mRNA (HepaRG cells, electroporation with 1,000 nM antisense oligonucleotide, approx. 24 hours, PKK mRNA by RT-PCR (RTS3454), relative to untreated control cells, Table 25 experiment); 42% with human PKK mRNA (HepaRG cells, electroporation with 1,000 nM antisense oligonucleotide, approx. 24 hours, PKK mRNA by RT-PCR (RTS3454), relative to untreated control cells, Table 26 experiment); 16% in the data set with human PKK mRNA (HepaRG cells, electroporation with 1,000 nM antisense oligonucleotide, approximately 24 hours, primer probe set RTS3454, relative to untreated control cells, experiment of Table 23); 0% in the data set on human PKK mRNA (HepaRG cells, electroporation with 1,000 nM antisense oligonucleotide, approximately 24 hours, primer probe set RTS3454, relative to untreated control cells, experiment of Table 24); 48% in the data set with human PKK mRNA (PKK mRNA, HepaRG cells, 1,000 nM antisense oligonucleotide, Table 31). Further, the “% inhibition” value with human PKK mRNA (Table 21 experiment, HepaRG cells, electroporation with 1,000 nM antisense oligonucleotide, approx. 24 hours, PKK mRNA by RT-PCR (RTS3454), relative to untreated control cells) is reported as 62%; with human PKK mRNA (Table 22 experiment, HepaRG cells, electroporation with 1,000 nM antisense oligonucleotide, approx. 24 hours, PKK mRNA by RT-PCR (RTS3454), relative to untreated control cells), 75%; with human PKK mRNA (Table 27, HepaRG cells, 1,000 nM antisense oligonucleotide, human PKK mRNA), 72%; in the data set on human PKK mRNA (Table 28, HepaRG cells, 1,000 nM antisense oligonucleotide, human PKK mRNA), 46%; in the data set with human PKK mRNA (Table 30, human PKK mRNA, HepaRG cells, 1,000 nM antisense oligonucleotide), 46%.
Take `NC(N)=NCCC[C@@H](N)C(=O)N[C@@H](CCCN=C(N)N)C(=O)N1CCC[C@H]1C(=O)N1C[C@H](O)C[C@H]1C(=O)NCC(=O)N[C@@H](Cc1cccs1)C(=O)N[C@@H](CO)C(=O)N1Cc2ccccc2C[C@@H]1C(=O)N1[C@H](C(=O)N[C@@H](CCCN=C(N)N)C(=O)O)C[C@@H]2CCCC[C@@H]21` [HOE-140, Icatibant, reference compound]: in data set [1] (HOE-140 30 μg ip), the “OD600 nm of Evans Blue dye, Colon” value was determined as 0.24; the “OD600 nm of Evans Blue dye, Ears” value came to 0.047; the “OD600 nm of Evans Blue dye, Feet” value was found to be 0.09. In data set [2] (HOE-140 30 μg ip), the “OD600 nm of Evans Blue dye, Colon” value amounted to 0.15; the “OD600 nm of Evans Blue dye, Ears” value was found to be 0.04; the “OD600 nm of Evans Blue dye, Feet” value was found to be 0.03; the “OD600 nm of Evans Blue dye, Intestine” value worked out at 0.10.
